Species on record: Rattus norvegicus
Assay: Open TG-GATES - Regimen: Single
Format: toxicity, organism-based, Sprague-Dawley
Parameters: regimen Single, gender Male, age 6 weeks
Conditions: in vivo, po, 0 mg/kg, route gavage, dose level Control; for APTT / Bas / Eos / Fbg / Hb / Ht / Lym / MCH / MCHC / MCV / Mono / Neu / PT / Plat / RBC / Ret / WBC: tissue Blood; for KIDNEY_L / KIDNEY_R / KIDNEY_TOTAL: tissue Kidney; for LIVER: tissue Liver; for A/G / ALP / ALT / AST / BUN / CRE / Ca / Cl / DBIL / GLC / IP / K / LDH / Na / PL / RALB / TBIL / TC / TG / TP / gamma-GTP: tissue Plasma

COc1ccc(O)c(C(C)(C)C)c1.COc1ccc(O)cc1C(C)(C)C [BUTYLATED HYDROXYANISOLE]
TERMINAL_BW (3 h): 208.5 g | APTT (3 h): 13.3 s | Bas (3 h): 0.2% | Eos (3 h): 0.7% | Fbg (3 h): 265.2 mg/dL | Hb (3 h): 13.1 g/dL | Ht (3 h): 38.4% | Lym (3 h): 74% | MCH (3 h): 21.2 pg | MCHC (3 h): 34% | MCV (3 h): 62.4 fL | Mono (3 h): 3% | Neu (3 h): 21.1% | PT (3 h): 11.5 s | Plat (3 h): 132.5 x10_4/uL | RBC (3 h): 616.8 x10_4/ul | Ret (3 h): 7.8% | WBC (3 h): 93.2 x10_2/uL | KIDNEY_L (3 h): 0.9 g | KIDNEY_R (3 h): 0.8 g | KIDNEY_TOTAL (3 h): 1.7 g | LIVER (3 h): 9 g | A/G (3 h): 0.8 | ALP (3 h): 1750 IU/L | ALT (3 h): 41.4 IU/L | AST (3 h): 76.4 IU/L | BUN (3 h): 10.6 mg/dL | CRE (3 h): 0.2 mg/dL | Ca (3 h): 11.2 mg/dL | Cl (3 h): 106.4 meq/L | DBIL (3 h): 0.03 mg/dL | GLC (3 h): 171.8 mg/dL | IP (3 h): 8.9 mg/dL | K (3 h): 4.4 meq/L | LDH (3 h): 72.2 IU/L | Na (3 h): 141 meq/L | PL (3 h): 153.8 mg/dL | RALB (3 h): 2.6 g/dL | TBIL (3 h): 0.076 mg/dL | TC (3 h): 80.8 mg/dL | TG (3 h): 84.6 mg/dL | TP (3 h): 5.6 g/dL | gamma-GTP (3 h): 1.2 IU/L | TERMINAL_BW (6 h): 202.6 g | APTT (6 h): 16.8 s | Bas (6 h): 0.2% | Eos (6 h): 0.7% | Fbg (6 h): 263 mg/dL | Hb (6 h): 13.3 g/dL | Ht (6 h): 39% | Lym (6 h): 75.4% | MCH (6 h): 21.3 pg | MCHC (6 h): 34.2% | MCV (6 h): 62.2 fL | Mono (6 h): 2% | Neu (6 h): 20.9% | PT (6 h): 12.6 s | Plat (6 h): 145.4 x10_4/uL | RBC (6 h): 626.6 x10_4/ul | Ret (6 h): 7.6% | WBC (6 h): 97.7 x10_2/uL | KIDNEY_L (6 h): 0.9 g | KIDNEY_R (6 h): 0.9 g | KIDNEY_TOTAL (6 h): 1.8 g | LIVER (6 h): 8.1 g | A/G (6 h): 0.8 | ALP (6 h): 1507 IU/L | ALT (6 h): 33.8 IU/L | AST (6 h): 67.8 IU/L | BUN (6 h): 7.2 mg/dL | CRE (6 h): 0.2 mg/dL | Ca (6 h): 10.9 mg/dL | Cl (6 h): 109 meq/L | DBIL (6 h): 0.026 mg/dL | GLC (6 h): 179 mg/dL | IP (6 h): 10 mg/dL | K (6 h): 4.1 meq/L | LDH (6 h): 54.8 IU/L | Na (6 h): 142.6 meq/L | PL (6 h): 127.8 mg/dL | RALB (6 h): 2.6 g/dL | TBIL (6 h): 0.074 mg/dL | TC (6 h): 73.8 mg/dL | TG (6 h): 58.2 mg/dL | TP (6 h): 5.7 g/dL | gamma-GTP (6 h): 1.2 IU/L | TERMINAL_BW (9 h): 203.6 g | APTT (9 h): 15.7 s | Bas (9 h): 0.2% | Eos (9 h): 0.8% | Fbg (9 h): 263 mg/dL | Hb (9 h): 12.9 g/dL | Ht (9 h): 37.6% | Lym (9 h): 74.4% | MCH (9 h): 21.1 pg | MCHC (9 h): 34.2% | MCV (9 h): 61.5 fL | Mono (9 h): 2.8% | Neu (9 h): 21% | PT (9 h): 12.8 s | Plat (9 h): 142.3 x10_4/uL | RBC (9 h): 612 x10_4/ul | Ret (9 h): 8.4% | WBC (9 h): 68.2 x10_2/uL | KIDNEY_L (9 h): 0.9 g | KIDNEY_R (9 h): 0.8 g | KIDNEY_TOTAL (9 h): 1.7 g | LIVER (9 h): 7.6 g | A/G (9 h): 0.9 | ALP (9 h): 1620.2 IU/L | ALT (9 h): 30.8 IU/L | AST (9 h): 66.6 IU/L | BUN (9 h): 8.8 mg/dL | CRE (9 h): 0.2 mg/dL | Ca (9 h): 10.9 mg/dL | Cl (9 h): 106.2 meq/L | DBIL (9 h): 0.022 mg/dL | GLC (9 h): 177.4 mg/dL | IP (9 h): 10.2 mg/dL | K (9 h): 4.1 meq/L | LDH (9 h): 61.6 IU/L | Na (9 h): 141.8 meq/L | PL (9 h): 128.2 mg/dL | RALB (9 h): 2.6 g/dL | TBIL (9 h): 0.088 mg/dL | TC (9 h): 76.8 mg/dL | TG (9 h): 39.4 mg/dL | TP (9 h): 5.6 g/dL | gamma-GTP (9 h): 1.2 IU/L | TERMINAL_BW (24 h): 217.3 g | APTT (24 h): 15.1 s | Bas (24 h): 0.2% | Eos (24 h): 0.7% | Fbg (24 h): 275.6 mg/dL | Hb (24 h): 13 g/dL | Ht (24 h): 38% | Lym (24 h): 77% | MCH (24 h): 20.9 pg | MCHC (24 h): 34.2% | MCV (24 h): 61.2 fL | Mono (24 h): 2.3% | Neu (24 h): 19.1% | PT (24 h): 12.2 s | Plat (24 h): 136.6 x10_4/uL | RBC (24 h): 620.2 x10_4/ul | Ret (24 h): 7% | WBC (24 h): 82.5 x10_2/uL | KIDNEY_L (24 h): 0.9 g | KIDNEY_R (24 h): 0.9 g | KIDNEY_TOTAL (24 h): 1.8 g | LIVER (24 h): 9.7 g | A/G (24 h): 0.8 | ALP (24 h): 1843.2 IU/L | ALT (24 h): 40 IU/L | AST (24 h): 70.8 IU/L | BUN (24 h): 14.6 mg/dL | CRE (24 h): 0.2 mg/dL | Ca (24 h): 11.2 mg/dL | Cl (24 h): 106.4 meq/L | DBIL (24 h): 0.018 mg/dL | GLC (24 h): 173 mg/dL | IP (24 h): 7.7 mg/dL | K (24 h): 4.3 meq/L | LDH (24 h): 63.2 IU/L | Na (24 h): 143.6 meq/L | PL (24 h): 136.6 mg/dL | RALB (24 h): 2.6 g/dL | TBIL (24 h): 0.066 mg/dL | TC (24 h): 77.6 mg/dL | TG (24 h): 75.8 mg/dL | TP (24 h): 5.7 g/dL | gamma-GTP (24 h): 1 IU/L

Source: ChEMBL document CHEMBL3885861, “Open TG-GATES”
